Among the test systems are SNB-19 CNS; 786-0 renal; A549 NSCLC; HS 578T breast; K-562 leukemia; TK-10 renal; UACC-257 melanoma; OVCAR-8 ovarian; OVCAR-4 ovarian; NCI-H226 lung.
What all share (assay): inhibition of tumour cell growth, NCI panel, 48 h

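Exposure lasted 48 hours, with cells grown in 96-well plates and compounds tested at five concentrations. GI50 = concentration required for 50% inhibition of growth. At the TGI there is no net growth.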 Where only a bound is given, the exact number is not on record here.

Our source for the TGI and GI50 values is PubChem BioAssay (NCI).

Take `CC(=O)NNc1nc(C)c(C(/C=C/c2ccccc2O)=N/N=C(N)N)s1`: the TGI in the assay on SNB-19 CNS, with 786-0 renal, in the assay with A549 NSCLC, in the assay with HS 578T breast, in the assay with K-562 leukemia and in the assay with TK-10 renal was more than 100 µM in each case. Also, the TGI in the assay on UACC-257 melanoma, with OVCAR-8 ovarian, with OVCAR-4 ovarian and in the assay with NCI-H226 lung was more than 100 µM throughout.
With `O=c1c(Cl)c(Cl)cnn1CCCl`, the TGI in the assay on SNB-19 CNS stood at 16.4 µM; with 786-0 renal, 25.3 µM; in the assay on A549 NSCLC, 35.3 µM; with HS 578T breast, 12.8 µM; in the assay with K-562 leukemia, 5.18 µM; with TK-10 renal, 30.3 µM. The TGI in the assay on UACC-257 melanoma is 6.58 µM; with OVCAR-8 ovarian it was 10.9 µM; in the assay on OVCAR-4 ovarian, 3.14 µM; with NCI-H226 lung, 52.4 µM.
Turning to `Cc1cc2c(-c3nc4ccccn4c3N)c(O)c(O)cc2c(O)c1-c1c(C)cc2c(-c3nc4ccccn4c3N)c(O)c(O)cc2c1O`, the GI50 with SNB-19 CNS is 0.661 µM; with 786-0 renal it was 2.82 µM; in the assay with A549 NSCLC, 0.688 µM; in the assay on HS 578T breast it was 0.797 µM; with K-562 leukemia, 1.02 µM; in the assay with TK-10 renal, 1.51 µM. Moreover, the GI50 is 2.9 µM in the assay with UACC-257 melanoma, 0.975 µM in the assay on OVCAR-8 ovarian, 4.85 µM in the assay on OVCAR-4 ovarian and 1.44 µM in the assay on NCI-H226 lung. In addition, the TGI with SNB-19 CNS, with 786-0 renal, in the assay on A549 NSCLC, in the assay on HS 578T breast, in the assay with K-562 leukemia and in the assay with TK-10 renal was more than 25 µM in each case. In addition, the TGI in the assay on UACC-257 melanoma, with OVCAR-8 ovarian, with OVCAR-4 ovarian and in the assay with NCI-H226 lung was more than 25 µM in each case.
As to `Nc1nc(/C=C\c2ccccc2)nc(N2CCN(c3ccccc3)CC2)n1`, the GI50 was 20.4 µM in the assay with SNB-19 CNS; 16.2 µM in the assay on 786-0 renal; 31.5 µM in the assay with A549 NSCLC; 61.8 µM in the assay with HS 578T breast; 20.5 µM in the assay with K-562 leukemia; 28.4 µM in the assay with TK-10 renal. Also, the GI50 with UACC-257 melanoma was 29.1 µM; with OVCAR-8 ovarian it was 35.4 µM; in the assay on OVCAR-4 ovarian, 37.2 µM; in the assay with NCI-H226 lung it was 27.9 µM. For the same compound, the TGI in the assay with SNB-19 CNS was 60 µM; with 786-0 renal, 34.8 µM; in the assay with A549 NSCLC, more than 100 µM; in the assay with HS 578T breast it was more than 100 µM; with K-562 leukemia, 65.1 µM; in the assay with TK-10 renal, 81.1 µM. Besides, the TGI in the assay on UACC-257 melanoma was 68.5 µM; in the assay with OVCAR-8 ovarian, more than 100 µM; in the assay with OVCAR-4 ovarian it was more than 100 µM; in the assay on NCI-H226 lung it was 94.5 µM.
`CC1=CC(C)(C)NN1C1=NS(=O)(=O)c2ccccc2N1C`: the TGI with SNB-19 CNS, in the assay on 786-0 renal, in the assay on A549 NSCLC, in the assay with HS 578T breast, in the assay with K-562 leukemia and in the assay with TK-10 renal was more than 100 µM in each case. In addition, the TGI with UACC-257 melanoma, in the assay with OVCAR-8 ovarian, in the assay on OVCAR-4 ovarian and in the assay on NCI-H226 lung was more than 100 µM in each case.
